Reference: ChEMBL document CHEMBL1121647, “Synthesis and antiviral properties of (Z)-5-(2-bromovinyl)-2'-deoxyuridine” (1981)
In brackets after ≈: the same amount, converted by molar mass.

These compounds were tested on Vaccinia virus (assay: Minimum inhibitory concentration required to reduce vaccinia virus-induced cytopathogenicity in primary rabbit kidney cell cultures). Settings: Orthopoxvirus vaccinia.
Assay type: functional
`O=c1[nH]c(=O)n([C@H]2C[C@H](O)[C@@H](CO)O2)cc1/C=C\Br` gave an MIC of 4 µg/mL (≈ 12 µM). For `O=c1[nH]c(=O)n([C@H]2C[C@H](O)[C@@H](CO)O2)cc1/C=C/Br` [BRIVUDINE], the MIC was 4 µg/mL (≈ 12 µM). Work on `O=c1[nH]c(=O)n([C@H]2C[C@H](O)[C@@H](CO)O2)cc1I` [IDOXURIDINE] yielded an MIC of 0.1 µg/mL (≈ 0.282 µM).
